One assay relates to A549 cell spheroids. Briefly: 3D tumor spheroid assay. It is filed as cell-based, human. To be noted: 12 days; for influence on spheroid tumor growth: 5 μM. As to the method: A 3D spheroid model was employed to investigate the effect of longer term MD13 treatment in a more complex model for tumor growth. The 3D spheroid model was established using A549 cancer cells by a method adapted from Feng et al.[48] The spheroids were grown over a 12‐day period in absence or presence of PROTAC MD13. Each spheroid was prepared from about 1000 A549 cells. After three‐day incubation, these spheroids were treated with 1, 2, or 5 μM of MD13 with 72 hours intervals over 12 days. Spheroid growth was monitored by measuring the diameter and this was compared to day 0 of the treatment. The tumor spheroids in MD13 treated groups were significant smaller compared to the control group (Figure 5 B and Figure S9). With continuous exposure to 1, 2, or 5 μM of MD13 for 12 days, the growth of the spheroid tumor volume was inhibited by 42 %, 53 %, and 81 % compared with control group, respectively. […]
Tumor spheroid assay. A549 cells (1000 cells/well) were seeded onto a 96-well round-bottomed ultra low attachment plate (Corning). After 2 days of incubation without disturbance, the spheroid was treated with indicated compound every 3 days. […]
(1 picture or pasted object on this page, not shown here) […]
inverted microscope (Nikon Eclipse Ti) connected with a NIS-elements software. The data were analyzed and plotted with Graphpad Prism8. […]
cells were seeded in an ultralow attachment 96-well round-bottomed plate (1000 cells/well) to generate tumor spheroids (a single spheroid per well). After initiation, the spheroids were treated with different compounds at the indicated concentrations every three days. DMSO was used as vehicle control. The day of the first treatment was indicated as day 0. (A) Representative images were obtained at the indicated intervals using an inverted microscope. Scale bar: 500 μm. (B) Analysis was carried out using NIS-Elements AR 3.1 software, and growth curves were obtained relative to the untreated spheroids (day 0) and plotted with GraphPad Prism 8. Values are shown as means ± SD (n = 3 spheroids/time point, **p < 0.01 vs control). […]

Another assay has as its system A549 cells. Briefly: Cell cycle analysis by flow cytometry (propidium iodide). To be noted: 48 h; for proportion of cells at the G2/M phase: control group 12 %. It counts as cell-based, human. The procedure: The effect of MIF‐directed PROTAC MD13 on cell cycle progression was further analyzed using flow cytometry (Figure 6). A549 cells were treated with MD13 at concentrations of 1, 2, or 5 μM for the duration of 48 h before analysis using flow cytometry. […] The proportion of cells at the G2/M phase is 12 % for the control group. This percentage increases to 17 %, 19 %, and 23 % upon treatment with 1, 2, and 5 μM MD13, respectively. […]
Flow cytometry. For cell cycle analysis, A549 cells were seeded in 6 -well plates at a density of 1x10^5 per well. The next day, the cells were treated with the appropriate compound or vehicle for 48h. Subsequently, the cells were washed with PBS (3 ×) and then harvested after trypinzation. After centrifugation at 300g, the cells were incubated with a solutio n containing 20 µg/ml propidium iodide (PI) (Sigma, P4864) and 0.1% (v/v) Triton -X100 (Sigma, T8787) for 15 min at room temperature. Fluorescence was detected by a Cytoflex flow cytometer […]
(1 picture or pasted object on this page, not shown here)
(Beckman Coulter, Woerden, the Netherlands) immediately. 30,000 cells were collected for each sample. Data were analyzed using FlowJo software (Tree start, Ashland, USA). […]
Background: Flow cytometry measures light scatter and fluorescence of single cells or particles in a stream.

The next assay deals with ERK phosphorylation. Briefly: ERK phosphorylation by western blot. The settings on record: A549, 2 μM; for effect on pERK levels: 3 and 4 for 24 h, MD15 for 6, 24 or 48 h. It is filed as cell-based, human. As to the method: The effect of treatment with MIF‐directed PROTAC MD13 on MIF‐related signaling pathways was investigated by assessment of ERK phosphorylation using western blot analysis. […] Thus treatment with the MIF‐directed PROTAC MD13 inhibits ERK phosphorylation as a MIF‐related signaling event. […]
ERK signaling pathway study. A549 cells (2x10^5 cells per well) were seeded into each well of a 6-well plate with 2 mL RPMI-1640 medium containing 10% FBS (Costar Europe, Badhoevedorp, The Netherlands), and 1% penicillin/streptomycin solution (Corning). After overnight culturing, the cells were treated with MD13, MD15, or DMSO for the time indicated.
After that, cells were lysed by RIPA buffer containing 1× PhosSTOP and protease inhibitor (PI) cocktail (Roche, Mannheim, Germany). The BCA Protein Assay Kit (Pierce, Rockford IL, USA) was used to determine the protein concentration. 30 µg protein was separated by a pre-cast 10% NuPAGE Bis-Tris gel (Invitrogen, USA) and then transferred to a polyvinylidene difluoride (PVDF) membrane. After blocking with 5% of skimmed milk for 1 hour at room temperature and incubation with the appropriate primary antibody (pERK, #9101, Cell Signaling, 1:1000; GAPDH, #97166, Cell Signaling, 1:10000) overnight at 4 °C, the membrane was treated with an HRP-conjugated secondary goat anti-rabbit antibody (#P0448, Dako, 1:2000) or rabbit anti-mouse antibody (#P0260, Dako, 1:2000) at room temperature for 1 hour.
The protein bands were visualized with enhanced chemiluminescence (ECL) solution (GE Healthcare). The figures were quantified with imageJ software based on grayscale. […]
(Immunoblotting shows a protein as a band on a membrane.)

For the next assay, the target named is T1, MIF (Homo sapiens, UniProt P14174).
T1 sequence (P14174 2-115 limits assumed): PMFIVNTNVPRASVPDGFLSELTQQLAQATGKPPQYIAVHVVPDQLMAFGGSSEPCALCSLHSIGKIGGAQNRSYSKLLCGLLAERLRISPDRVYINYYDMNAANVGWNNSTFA
Briefly: MIF degradation in A549 cells, cell lysate-based ELISA. Set-up: endogenous in cells; host or cells: A549 (ATCC CCL-185). The settings on record: 12 h, vs DMSO, mean±SD n=3. In general terms: In an ELISA, binding on a coated surface is turned into a signal by an enzyme label.

SMILES strings stand for the structures. Where “and” joins values, the source holds several entries; their conditions need not be identical. Equal values may be shown once.

With `CN1C(=O)CCC(N2C(=O)c3cccc(NCCCCCCCC(=O)Nc4ccc(N5Cc6ccc(O)cc6OC5=O)cc4)c3C2=O)C1=O` (centres unmarked) [MD15], the “influence on spheroid tumor growth” value with A549 cell spheroids is reported as “no significant influence”. Also, the “effect on the cell cycle” value in the assay with A549 cells (5 μM) is “little or no effect”. Also, the “effect on pERK levels” value in the assay with ERK phosphorylation is reported as “no significant decrease”. Further, at MIF, the “degradation [%] 0.2 μM” value is “not capable of inducing MIF degradation and n.s”.
As to `O=C1CCC(N2C(=O)c3cccc(NCCCCCCCC(=O)Nc4ccc(N5Cc6ccc(O)cc6OC5=O)cc4)c3C2=O)C(=O)N1` (centres unmarked) [MD13], the inhibition (commonly the percentage by which the read-out fell short of the control) at 1 µM in the assay on A549 cell spheroids (Homo sapiens, A549, 1 μM, treated every three days, read-out: inhibition of growth of spheroid tumor volume) was 42%. Also, the inhibition at 2 µM in the assay on A549 cell spheroids (Homo sapiens, A549, 2 μM, treated every three days, read-out: inhibition of growth of spheroid tumor volume) was 53%; in the assay on ERK phosphorylation (Homo sapiens, 24-hour treatment), ~50%. The inhibition at 5 µM with A549 cell spheroids (Homo sapiens, A549, 5 μM, treated every three days, read-out: inhibition of growth of spheroid tumor volume) worked out at 81%. Also, the “proportion of cells at the G2/M phase” value is 17% in the assay with A549 cells (1 μM), 19% in the assay on A549 cells (2 μM) and 23% with A549 cells (5 μM). In addition, at MIF, the “degradation [%] 0.2 μM” value is 71% and 71±7%.
Consider `COc1ccc(N2Cc3ccc(O)cc3OC2=O)cc1OC` [compound 3], for which the “influence on spheroid tumor growth” value with A549 cell spheroids is reported as “no significant influence”. The “effect on pERK levels” value in the assay on ERK phosphorylation is on record as “no significant decrease”.

The values above are taken from paper PMC8362126, “Proteolysis Targeting Chimera (PROTAC) for Macrophage Migration Inhibitory Factor (MIF) Has Anti‐Proliferative Activity in Lung Cancer Cells” (Angewandte Chemie (International Ed. in English), 2021).
